# Measured values from PMC7162859 (Scientific Reports, 2020).
# Read-outs that look alike come from different tables or passages of the source.
# Experiments:
# [1] = test system: orthotopic GBM1A tumors; format: in vivo; details: 10 mg/kg ip each drug once every 4 days for 28 days
# Description: Female NSG mice were intracranially implanted with 500,000 luciferase expressing GBM1A cells (transduced with lentiviral particles expressing GFP-Luciferase). After 7 days, animals were randomized into four groups and ip administered with microemulsion vehicle, 10 mg/kg elacridar, 10 mg/kg ispinesib, or a combination of 10 mg/kg ispinesib and 10 mg/kg elacridar, once every 4 days for 28 days (n = 10). The dosing schedule of once every 4 days was based on our previously publication with ispinesib. Tumor growth was monitored by bioluminescence imaging and animals were followed for survival.
# The progression of tumor growth was monitored by bioluminescence imaging (BLI) using an IVIS system. Mice that underwent stereotactic injection with GFP-luciferase expressing GBM1A cells were imaged twice a week. Ten minutes prior to imaging, mice were intraperitoneally injected with d-luciferin at 75 mg/kg body weight (3 mL/kg injection volume). Animals were immobilized using 1.5% − 3.0% isoflurane provided by nose cones within the imager and were kept warm using a heated stage set at 37 °C during the imaging procedure. Following imaging for about 5 minutes, animals were removed from the IVIS chamber and monitored until they fully recovered from anesthesia.
# [2] = in vivo; details: FVB, mouse, 10 mg/kg; for concentration at 2 h / concentration at 6 h: intraperitoneal
# Description: Blood and brain specimens were harvested at 2 and 6 hours post-dose.
# All dosing solutions were prepared on the day of the study. A serial sacrifice (destructive sampling) design was employed for sample collection. In all the pharmacokinetic studies conducted in non-tumor bearing FVB mice, the group size was 4 at each sampling time point (n = 4). At pre-determined time points, mice were euthanized using a carbon dioxide chamber. Blood was collected by cardiac puncture and transferred to sample tubes coated with heparin. The whole brain was isolated from skull and rinsed with ice-cold distilled water, and superficial meninges were removed by blotting with tissue paper. Plasma was separated by centrifugation of blood samples at 3500 rpm and 4°C for 15 minutes. […] All the samples were stored at -80°C, until further analysis. The concentrations of ispinesib in all the samples were analyzed by LC-MS/MS. Assuming a vascular volume of 1.4% in mouse brain ^5, the concentrations in brain were corrected for residual drug in brain vasculature.
# Kp=CbrainCplasma (Equation 4)
# [3] = test system: GBM1A cells; experiment: In vitro cytotoxicity assay (CellTiter-Glo, 72 hours); format: cell-based, human; details: for EC50: Homo sapiens, 72 h, 72 hours, read-out: Ispinesib EC50
# Description: TP53(−/−) and PTEN(−/−) cells were seeded into 96-well plates (pre-coated with fibronectin) at a density of 5,000 cells per well in DMEM media with 0.5% FBS, 1% nitrogen supplement, 10 ng/ml of FGF and 10 ng/ml of PDGFAA. Human GBM1A cells were seeded into 96 well plates (pre-coated with laminin) in DMEM media with 1% neuroPlex supplement, 20 ng/ml of EGF and 20 ng/ml of […]. After 24 hours (~70% confluency), cells were exposed to ispinesib (n = 10 wells per concentration) from 0.025–1000 nM with or without 500 nM elacridar co-treatment. The plates were incubated for 72 hours, cell viability measured using CellTiter-Glo ATP-based assay, and read on a luminometer. The dose-response data were fit to the Hill equation.
# In vitro potency data was fitted to “log(inhibitor) vs. normalized response - variable slope” equation in GraphPad Prism version 6.04 (GraphPad, La Jolla, CA) to determine half-maximal effective concentration (EC50).
structure (smiles),measurement,setting,value
"Cc1ccc(C(=O)N(CCCN)[C@@H](c2nc3cc(Cl)ccc3c(=O)n2Cc2ccccc2)C(C)C)cc1 [Ispinesib, N-(3-aminopropyl)-N-[(1 R)-1-(3-benzyl-7-chloro-4-oxoquinazolin-2-yl)-2-methylpropyl]-4-methylbenzamide]","tumor doubling time (bioluminescence, single exponential fit)",[1]; days 7–37,9.4 days
same,median survival,[1]; vehicle 61 days,74 days
same,Kp at 2 h,"[2]; brain and plasma, ip",0.1 ± 0.08
same,Kp at 6 h,"[2]; brain and plasma, ip",0.38 ± 0.14
same,concentration at 2 h,[2]; brain,80 ± 20 ng/mL
same,concentration at 6 h,[2]; brain,270 ± 90 ng/mL
same,concentration at 2 h,[2]; plasma,1110 ± 570 ng/mL
same,concentration at 6 h,[2]; plasma,730 ± 110 ng/mL
same,EC50,[3]; [Elacridar] 0 nM,1.4 ± 0.2 nM
same,EC50,[3]; [Elacridar] 500 nM,0.5 ± 0.04 nM
same,Hill Coefficient,[3]; [Elacridar] 0 nM,1.8 ± 0.3
same,Hill Coefficient,[3]; [Elacridar] 500 nM,1.7 ± 0.2
